Data as given in patent US12686873B2, “Plants having increased tolerance to herbicides” (priority 2012, dated 2026).
Values joined by “and” are separate entries in the source; they are usually repeats but may differ in a detail not shown here. Equal entries are not always repeated.

What was measured:
Soy = test: Tolerance rates for soybean (injury score 0-9); conditions: Soy
[1] = system: transgenic T1 Arabidopsis plants; test: Transgenic T1 Arabidopsis greenhouse tolerance study (injury rating); conditions: SEQ_ID 2 & 4, L397D, F420V
[2] = system: Chlamydomonas reinhardtii strains; test: Selection and dose-response of Chlamydomonas reinhardtii strains

C#CCN1C(=O)C(F)(F)Oc2cc(F)c(-n3c(=O)n(C)c(=S)n(C)c3=O)cc21
injury score (Soy; 1,5-dimethyl-6-thioxo-3-(...)-1,3,5-triazinane-2,4-dione 12.5 g ai/ha, amino acid substitution F420L, SEQ ID NO 2): 2 and 1 | injury score (Soy; 1,5-dimethyl-6-thioxo-3-(...)-1,3,5-triazinane-2,4-dione 12.5 g ai/ha, amino acid substitution L369D, F392V, SEQ ID NO 40): 8 and 5 and 7 and 6 and 4 | injury score (Soy; 1,5-dimethyl-6-thioxo-3-(...)-1,3,5-triazinane-2,4-dione 12.5 g ai/ha, amino acid substitution L397D, F420V, SEQ ID NO 2): 2 | injury score (Soy; 1,5-dimethyl-6-thioxo-3-(...)-1,3,5-triazinane-2,4-dione 12.5 g ai/ha, amino acid substitution L397E, SEQ ID NO 2): 5 and 7 and 6 and 4 and 8 | injury score (Soy; 1,5-dimethyl-6-thioxo-3-(...)-1,3,5-triazinane-2,4-dione 12.5 g ai/ha, amino acid substitution L397Q, SEQ ID NO 2): 7 | injury score (Soy; 1,5-dimethyl-6-thioxo-3-(...)-1,3,5-triazinane-2,4-dione 12.5 g ai/ha, amino acid substitution none, SEQ ID NO 2): 3 and 7 and 6 and 5 | injury score (Soy; 1,5-dimethyl-6-thioxo-3-(...)-1,3,5-triazinane-2,4-dione 12.5 g ai/ha, amino acid substitution none, SEQ ID NO 40): 8 and 6 and 7 and 9 | injury score (Soy; 1,5-dimethyl-6-thioxo-3-(...)-1,3,5-triazinane-2,4-dione 25 g ai/ha, amino acid substitution F420L, SEQ ID NO 2): 9 and 1 and 3 and 4 and 5 | injury score (Soy; 1,5-dimethyl-6-thioxo-3-(...)-1,3,5-triazinane-2,4-dione 25 g ai/ha, amino acid substitution F420M, SEQ ID NO 2): 4 and 1 and 5 and 8 | injury score (Soy; 1,5-dimethyl-6-thioxo-3-(...)-1,3,5-triazinane-2,4-dione 25 g ai/ha, amino acid substitution L369D, F392V, SEQ ID NO 40): 9 and 8 and 6 and 7 and 4 | injury score (Soy; 1,5-dimethyl-6-thioxo-3-(...)-1,3,5-triazinane-2,4-dione 25 g ai/ha, amino acid substitution L397D, F420V, SEQ ID NO 2): 5 | injury score (Soy; 1,5-dimethyl-6-thioxo-3-(...)-1,3,5-triazinane-2,4-dione 25 g ai/ha, amino acid substitution L397D, SEQ ID NO 2): 8 and 4 and 5 | injury score (Soy; 1,5-dimethyl-6-thioxo-3-(...)-1,3,5-triazinane-2,4-dione 25 g ai/ha, amino acid substitution L397E, F420M, SEQ ID NO 2): 2 and 1 and 0 | injury score (Soy; 1,5-dimethyl-6-thioxo-3-(...)-1,3,5-triazinane-2,4-dione 25 g ai/ha, amino acid substitution L397E, SEQ ID NO 2): 5 and 8 and 6 and 7 | injury score (Soy; 1,5-dimethyl-6-thioxo-3-(...)-1,3,5-triazinane-2,4-dione 25 g ai/ha, amino acid substitution L397Q, F420M, SEQ ID NO 2): 3 and 7 and 2 and 0 and 6 | injury score (Soy; 1,5-dimethyl-6-thioxo-3-(...)-1,3,5-triazinane-2,4-dione 25 g ai/ha, amino acid substitution L397Q, F420V, SEQ ID NO 2): 4 and 6 | injury score (Soy; 1,5-dimethyl-6-thioxo-3-(...)-1,3,5-triazinane-2,4-dione 25 g ai/ha, amino acid substitution L397Q, SEQ ID NO 2): 9 | injury score (Soy; 1,5-dimethyl-6-thioxo-3-(...)-1,3,5-triazinane-2,4-dione 25 g ai/ha, amino acid substitution none, SEQ ID NO 2): 5 and 7 and 6 and 8 | injury score (Soy; 1,5-dimethyl-6-thioxo-3-(...)-1,3,5-triazinane-2,4-dione 25 g ai/ha, amino acid substitution none, SEQ ID NO 40): 9 and 6 and 7 and 8 | injury score (Soy; 1,5-dimethyl-6-thioxo-3-(...)-1,3,5-triazinane-2,4-dione 50 g ai/ha, amino acid substitution F420L, SEQ ID NO 2): 6 | injury score (Soy; 1,5-dimethyl-6-thioxo-3-(...)-1,3,5-triazinane-2,4-dione 50 g ai/ha, amino acid substitution F420M, SEQ ID NO 2): 3 and 4 and 2 and 5 and 9 | injury score (Soy; 1,5-dimethyl-6-thioxo-3-(...)-1,3,5-triazinane-2,4-dione 50 g ai/ha, amino acid substitution L369D, F392V, SEQ ID NO 40): 8 and 7 | injury score (Soy; 1,5-dimethyl-6-thioxo-3-(...)-1,3,5-triazinane-2,4-dione 50 g ai/ha, amino acid substitution L397D, F420V, SEQ ID NO 2): 4 | injury score (Soy; 1,5-dimethyl-6-thioxo-3-(...)-1,3,5-triazinane-2,4-dione 50 g ai/ha, amino acid substitution L397D, SEQ ID NO 2): 9 and 5 and 8 and 4 and 6 | injury score (Soy; 1,5-dimethyl-6-thioxo-3-(...)-1,3,5-triazinane-2,4-dione 50 g ai/ha, amino acid substitution L397E, F420M, SEQ ID NO 2): 2 and 1 | injury score (Soy; 1,5-dimethyl-6-thioxo-3-(...)-1,3,5-triazinane-2,4-dione 50 g ai/ha, amino acid substitution L397Q, F420M, SEQ ID NO 2): 2 and 7 and 3 and 4 and 6 and 5 and 1 | injury score (Soy; 1,5-dimethyl-6-thioxo-3-(...)-1,3,5-triazinane-2,4-dione 50 g ai/ha, amino acid substitution L397Q, F420V, SEQ ID NO 2): 5 and 7 | injury score (Soy; 1,5-dimethyl-6-thioxo-3-(...)-1,3,5-triazinane-2,4-dione 75 g ai/ha, amino acid substitution L397E, F420M, SEQ ID NO 2): 2 and 3 and 1 | injury score (Soy; 1,5-dimethyl-6-thioxo-3-(...)-1,3,5-triazinane-2,4-dione 75 g ai/ha, amino acid substitution L397Q, F420M, SEQ ID NO 2): 3 and 7 and 8 and 4 and 5 and 6 and 2 | injury score (Soy; 1,5-dimethyl-6-thioxo-3-(...)-1,3,5-triazinane-2,4-dione 75 g ai/ha, amino acid substitution L397Q, F420V, SEQ ID NO 2): 5 and 7 | Injury Rating 0-100% (0 = no injury, 100 = total control) ([1]; 75 g/Ha + 1% MSO, 7 DAT, Line 1): 98% | Injury Rating 0-100% (0 = no injury, 100 = total control) ([1]; 75 g/Ha + 1% MSO, 7 DAT, Line 2): 100% | Injury Rating 0-100% (0 = no injury, 100 = total control) ([1]; 75 g/Ha + 1% MSO, 7 DAT, Line 3): 80% | Injury Rating 0-100% (0 = no injury, 100 = total control) ([1]; 75 g/Ha + 1% MSO, 19 DAT, Line 1): 95% | Injury Rating 0-100% (0 = no injury, 100 = total control) ([1]; 75 g/Ha + 1% MSO, 19 DAT, Line 2): 100% | Injury Rating 0-100% (0 = no injury, 100 = total control) ([1]; 75 g/Ha + 1% MSO, 19 DAT, Line 3): 95% | Injury Rating 0-100% (0 = no injury, 100 = total control) ([1]; 150 g/Ha + 1% MSO, 7 DAT, Line 1): 30% | Injury Rating 0-100% (0 = no injury, 100 = total control) ([1]; 150 g/Ha + 1% MSO, 7 DAT, Line 2): 98% | Injury Rating 0-100% (0 = no injury, 100 = total control) ([1]; 150 g/Ha + 1% MSO, 7 DAT, Line 3): 98% | Injury Rating 0-100% (0 = no injury, 100 = total control) ([1]; 150 g/Ha + 1% MSO, 19 DAT, Line 1): 65% | Injury Rating 0-100% (0 = no injury, 100 = total control) ([1]; 150 g/Ha + 1% MSO, 19 DAT, Line 2): 100% | Injury Rating 0-100% (0 = no injury, 100 = total control) ([1]; 150 g/Ha + 1% MSO, 19 DAT, Line 3): 100% | Injury Rating 0-100% (0 = no injury, 100 = total control) ([1]; 300 g/Ha + 1% MSO, 7 DAT, Line 1): 100% | Injury Rating 0-100% (0 = no injury, 100 = total control) ([1]; 300 g/Ha + 1% MSO, 7 DAT, Line 2): 30% | Injury Rating 0-100% (0 = no injury, 100 = total control) ([1]; 300 g/Ha + 1% MSO, 7 DAT, Line 3): 35% | Injury Rating 0-100% (0 = no injury, 100 = total control) ([1]; 300 g/Ha + 1% MSO, 19 DAT, Line 1): 98% | Injury Rating 0-100% (0 = no injury, 100 = total control) ([1]; 300 g/Ha + 1% MSO, 19 DAT, Line 2): 60% | Injury Rating 0-100% (0 = no injury, 100 = total control) ([1]; 300 g/Ha + 1% MSO, 19 DAT, Line 3): 80% | growth of mutagenized cells plated on solid medium containing the herbicide ([2]; 1×10^−7 M in solid medium, FIG. 2B): susceptible cells do not grow | IC50 of mutagenized cells (strain 17) compared to Wild-type cells ([2]; dose-response curve, FIG. 3B versus FIG. 3A): much lower IC50
